Active and inactive are the calls of the source.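 The calls were made as follows: active = fitted half-maximal inhibitory concentration AC50 at most ten times the top concentration tested; inconclusive = flat fit with 30 to 70% inhibition, or unusable fit; inactive = AC50 above ten times the top concentration.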
The compounds below were run against E3 ubiquitin-protein ligase TRIM62 (Homo sapiens) (UniProt Q9BVG3) (assay: TRIM62 E3 ligase activity on CARD9 – biochemical, ubiquitin ELISA, AlphaLISA TUBE, CARD9-TRIM62 disruptor project, dose response (AID 1259342;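 as to AC50: potency is for inhibitors that reduce CARD9 ubiquitylation signal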)). Conditions: TRIM62-mediated CARD9 ubiquitylation, AlphaLISA TUBE detection.
E3 ubiquitin-protein ligase TRIM62 (Homo sapiens), sequence (Q9BVG3 whole entry, looked up): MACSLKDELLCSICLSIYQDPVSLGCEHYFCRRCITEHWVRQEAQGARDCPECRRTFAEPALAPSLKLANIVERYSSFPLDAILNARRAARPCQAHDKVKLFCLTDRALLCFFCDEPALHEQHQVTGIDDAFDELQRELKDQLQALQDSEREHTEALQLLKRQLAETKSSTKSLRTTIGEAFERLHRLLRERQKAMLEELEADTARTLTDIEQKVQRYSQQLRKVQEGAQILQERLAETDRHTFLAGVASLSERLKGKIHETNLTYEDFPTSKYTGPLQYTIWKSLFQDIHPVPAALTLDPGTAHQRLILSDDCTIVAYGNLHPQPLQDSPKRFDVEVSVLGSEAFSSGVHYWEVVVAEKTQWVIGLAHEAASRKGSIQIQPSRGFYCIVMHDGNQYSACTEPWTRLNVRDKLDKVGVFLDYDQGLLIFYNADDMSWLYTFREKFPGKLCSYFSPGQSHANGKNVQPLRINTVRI

SMILES | AC50
Cc1ccccc1C(=O)Nc1cnc(N2CCC(C(N)=O)(N3CCCCC3)CC2)c(C(=O)O)c1 | 9.03 µM
CC(C)(C)c1ccc(-c2nc(C#N)c(NCc3ccncc3)o2)cc1 | 22.3 µM
Cc1ccc(N2NC(c3ccc(Br)cc3)=CCC2=O)cc1 | > 160 µM (inactive)
NC(=O)C1(N2CCCCC2)CCN(c2ncc(NC(=O)c3cccc(Cl)c3)cc2C(=O)O)CC1 | 14.2 µM
CC(=O)Nc1ccc2nc3c(=O)n(C)c(=O)n(C)c3nc2c1 | 48.2 µM
O=C(O)COc1ccc(-n2cccc2)cc1 | 14.7 µM
CCCC(=O)NCc1ccc2c(c1)cc(C)n2C | > 160 µM (inactive)
O=C(Cn1c(=O)cc(C(=O)N2CCc3ccccc3C2)c2ccccc21)NCc1ccc2c(c1)OCO2 | 11.8 µM
NC(=O)C1(N2CCCCC2)CCN(c2ncc(NC(=O)c3ccccc3)cc2C(=O)O)CC1 | 6.61 µM

The remaining lines, values ahead:

AC50 | SMILES
3.62 µM | COc1ccc(S(=O)(=O)N2CCOCC2)cc1NC(=O)c1cccc(-n2cccc2)c1
4.63 µM | O=C(Nc1nc(-c2ccco2)c(-c2ccco2)s1)c1ccco1
26 µM | O=C(Cc1ccc(S(=O)(=O)N2CCOCC2)s1)Nc1nc2c(s1)CCCC2
13.5 µM | Cc1ccc(C)n1NC(=O)c1ccccc1O
29 µM | C(=C\c1ccco1)/c1nc2ccccc2[nH]1
26.2 µM | O=C(COc1cccnc1[N+](=O)[O-])c1ccc(Cl)s1
29.6 µM | N#Cc1c(N)oc(-c2ccco2)c1-c1ccco1
18.1 µM | COc1ccc(-c2ccc(CCC(=O)O)o2)cc1
> 160 µM (inactive) | O=C(CC1Nc2ccccc2OC1=O)Nc1ccc(Cl)cc1 (stereo not given)
78.2 µM | Cc1cccc2nc(CSCc3ccco3)cn12
31.1 µM | O=S(=O)(c1ccc2nc(-c3ccco3)c(-c3ccco3)nc2c1)N1CCOCC1
3.96 µM | Cc1nc(C)c(C(=O)Nc2ncc([N+](=O)[O-])s2)o1
5.47 µM | CC(C)C(CC(=O)NCc1ccco1)c1ccco1 (stereo not given)
15.7 µM | O=C(Nc1nccs1)c1cc(-c2ccco2)nc2ccccc12
63.5 µM | O=C(O)CCc1ccc(-c2cccs2)n1NC(=O)c1ccco1
13 µM | Cc1nn2c(c1-c1ccccc1)NC(c1ccco1)=CC2c1ccco1 (stereo not given)
1.35 µM | CC(=O)c1cccc(OCC(=O)N(C)CC(=O)NCc2ccco2)c1
3 µM | O=C(O)c1ccccc1/C=N/NC(=O)c1cc(-c2ccco2)nc2ccccc12
8.47 µM | COc1cccc(NC(=O)CN(C)C(=O)c2cc3c(s2)CCC3)c1
24.9 µM | COc1ccc2nc(-c3ccco3)c(-c3ccco3)nc2c1

Same assay, conditions: TRIM62-mediated CARD9 ubiquitylation, AlphaLISA TUBE detection; at 38 µM (top of the series)

SMILES | activity change, negative = inhibition
NC(=O)C1(N2CCCCC2)CCN(c2ncc(NC(=O)c3ccc(F)cc3)cc2C(=O)O)CC1 | inactive
O=C1NC(c2ccc(Br)cc2)Nc2sc3c(c21)CCC3 (stereo not given) | inactive

Now from value to compound:

activity change, negative = inhibition | SMILES
inactive | Cc1ccc(Nc2nc(C(=O)Nc3ccc(Br)cc3)nc3ccccc23)cc1
inactive | Cc1ccc(C)n1Nc1nc(O)cs1
inactive | Cc1ccc(-c2cc(C(=O)NCc3ccco3)c3ccccc3n2)o1
inactive | O=C(COC(=O)c1ccccc1Oc1ccccc1)NCc1ccco1

Same assay, conditions: TRIM62-mediated CARD9 ubiquitylation, AlphaLISA TUBE detection; at 80 µM (top of the series)

SMILES | activity change, negative = inhibition
CCCN1CCCn2nc(CNC(=O)[C@@H](N)Cc3ccc(O)cc3)cc2C1 | inactive
O=[N+]([O-])c1c(NCCCO)cc(SCc2ccco2)c2nonc12 | inactive
COc1ccc(Nc2nc(-c3nnc(-c4ccc(F)cc4)o3)nc3ccccc23)cc1Cl | inactive
CCCc1oc(C(=O)O)cc1CN | inactive
c1cn(CCc2noc(C3CCCC3)n2)c(-c2cc3n(n2)CCCNC3)n1 | inactive
CCN1CCOC(=O)C1CC(=O)Nc1cccc(C)c1 (stereo not given) | inactive
Cc1c(/C=C/c2nc3ccccc3c(=O)n2-c2ccccn2)c2ccccc2n1C | inactive
O=C(O)C(c1ccccc1)C(c1ccccc1)c1ccccc1 (stereo not given) | inactive
CC(C)=CCC(C#N)(CC=C(C)C)C(=O)O | inactive
Cc1cncc(-c2ccc(S(N)(=O)=O)cc2F)c1 | inactive
CCn1ccnc1C1CCN(C(=O)CCn2c(C)nc3ccccc32)CC1 | inactive
Cc1ccc2c(c1)C(N1CCCC1=O)CC(c1ccco1)N2 (stereo not given) | inactive
NC(=O)C1(N2CCCCC2)CCN(c2ccc(NC(=O)c3ccccc3F)cc2C(=O)O)CC1 | inactive
O=C(CCn1cncn1)N1CCC(n2cc(-c3ccccn3)nn2)CC1 | inactive
O=C1c2ccccc2S(=O)(=O)N1Cc1cccc(S(=O)(=O)N2CCOCC2)c1 | inactive
CS(=O)(=O)c1ccc2ccn(O)c2c1 | inactive
COC[C@]1(O)CCN(C(=O)CCN(C)S(C)(=O)=O)CC1(C)C | inactive
CCCOc1ccc(CCC(=O)O)cc1 | inactive
CCCc1cc(C(=O)N2CC[C@H]3CNC[C@H]32)n(C)n1 | inactive
O=C(CCCN1C(=O)NC2(CCCC2)C1=O)Nc1ccc(F)cc1 | inactive
FC(F)(F)c1cc(Cl)c2nnc(C(F)(F)Cl)n2c1 | inactive

Results, then the compound that gave them:

activity change, negative = inhibition | SMILES
inactive | O=C(Nc1cccc2ccccc12)NC1CC1
inactive | Cc1cc(C)c2c(N)c(C(=O)Nc3cccc4ccccc34)sc2n1
inactive | O=C(Nc1ccc2oc(-c3ccncc3)nc2c1)c1ccc2c(c1)OCO2
inactive | CC1(C)Cc2c(c(N3CCOCC3)nc3sc(C(=O)NCc4ccco4)c(N)c23)CO1
inactive | COc1ccc(CNC(=O)c2nc(Nc3ccc(C)cc3)c3ccccc3n2)cc1
inactive | O=C(Nc1nnc(-c2ccco2)s1)c1ccccc1
inactive | Cc1ccc(Nc2nc(C(=O)Nc3ccc(Cl)cc3)nc3ccccc23)cc1
inactive | Cc1occc1C(=O)NCc1cccc(CNC(=O)c2ccoc2C)c1
inactive | O=C(COC(=O)c1cc(-c2ccco2)nc2ccccc12)NCc1ccc2c(c1)OCO2
inactive | Cc1cc(C(=O)Nc2nc3c(s2)CCc2ccccc2-3)no1
inactive | O=C1c2cccnc2C(=O)N1Cc1ccc(S(=O)(=O)NCc2ccco2)cc1
inactive | C(=N\n1cnnc1SCc1ccccc1)/c1ccco1
inactive | O=C(NC(Sc1ncccn1)C(=O)c1ccccc1)c1ccccc1 (stereo not given)
inactive | CCOc1ccc(-n2c3nc4ccccc4nc3c3c(=O)n(Cc4ccco4)cnc32)cc1
inactive | O=C(NCc1ccco1)[C@@H]1CSC2c3ccccc3C(=O)N21 (stereo not given in full)
inactive | COCC(=O)n1nc(-c2ccco2)nc1NCc1cccs1
inactive | O=C(Cn1cncc1-c1ccc([N+](=O)[O-])cc1)Nc1ccccc1F
inactive | O=C(NCc1ccco1)c1ccc(S(=O)(=O)N2CCOCC2)cc1
inactive | O=C1C=C(c2ccccc2)Nc2ccccc2N1

Source: PubChem BioAssay AID1259342 (Broad Institute, 2017)
